The text below walks through data of article PMC4856769 (Cell Research, 2016).

pKd: −log10 of the molar value.

The assay addresses T1, YEATS domain of YEATS2 (YEATS2 201-332) (Homo sapiens, UniProt Q9ULM3).
T1 sequence (Q9ULM3 201-332): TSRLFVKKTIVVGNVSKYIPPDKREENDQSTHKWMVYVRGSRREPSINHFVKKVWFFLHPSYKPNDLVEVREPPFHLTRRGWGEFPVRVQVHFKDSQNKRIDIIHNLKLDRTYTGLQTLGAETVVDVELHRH
In words: ITC binding of histone peptides to the YEATS domain of YEATS2.

By pKd is commonly meant the Kd on a negative log10 scale, so that one unit is a factor of ten. `C/C=C/C(=O)NCCCC[C@H](NC(=O)[C@@H](NC(=O)[C@H](CCCNC(=N)N)NC(=O)[C@H](C)N)[C@@H](C)O)C(=O)N[C@@H](CCC(N)=O)C(=O)N[C@H](C(=O)N[C@@H](C)C(=O)N[C@@H](CCCNC(=N)N)C(=O)N[C@@H](CCCCN)C(=O)N[C@@H](CO)C(=O)N[C@H](C(=O)NCC(=O)NCC(=O)N[C@@H](CCCCN)C(=O)N[C@@H](C)C(=O)O)[C@@H](C)O)[C@@H](C)O` [H31-15K4cr] gave a pKd of 3.92.

Turning to “ARTKQT ARKST GGK(cr)APRKQLATKAA [H31-25K14cr]”, for the setting “ITC, 15°C, wild type YEATS2 201-332”, the “binding (in words)” value is given as “No binding”.
